# Data as given in patent publication US8344002B2, “Compound having β-secretase inhibitory activity” (priority 2007, dated 2013).
# Biological target: T1, recombinant human BACE-1 (rhBACE-1) (Homo sapiens, UniProt P56817)
# T1 construct: expressed as only an extracellular region (amino acid 1-460 residues) of recombinant human β-secretase; His tag (C); purchased R&D systems (Minneapolis, Minn.); host or cells: murine myeloma cell line NS0
# Assay: BACE1 inhibitory activity, rhBACE-1 with fluorogenic peptide substrate, reverse phase HPLC
# Format: biochemical
# Conditions: inhibitor 2 μM; MES buffer pH 5.0, 37° C., 60 minutes; read-out: Inhibitory rate (%) (2 μM)
# Description: Experiment Regarding Measurement of BACE1 Inhibitory Activity Enzyme Used in Measurement As an enzyme having β-secretase activity, recombinant human BACE-1 (rhBACE-1) purchased from R&D systems (Minneapolis, Minn.) was used. rhBACE-1 is expressed as only an extracellular region ([…] residues) of recombinant human β-secretase, with a His tag at its carboxyl terminus in murine myeloma cell line, NS0. Purified secreted rhBACE1 is a mixture of a pro entity (about 75 kDa) and a mature entity (about 72 kDa). […] Assessment of Enzyme Inhibitory Activity […] After incubation at 37° C. for 60 minutes, 20 μL of 20% trichloroacetic acid was added to stop the reaction. And, inhibition % was calculated by measuring a fluorescent intensity of the N-terminal fragment (Ex, 328 nm; […]
# T1 sequence (P56817 46-460 limits assumed): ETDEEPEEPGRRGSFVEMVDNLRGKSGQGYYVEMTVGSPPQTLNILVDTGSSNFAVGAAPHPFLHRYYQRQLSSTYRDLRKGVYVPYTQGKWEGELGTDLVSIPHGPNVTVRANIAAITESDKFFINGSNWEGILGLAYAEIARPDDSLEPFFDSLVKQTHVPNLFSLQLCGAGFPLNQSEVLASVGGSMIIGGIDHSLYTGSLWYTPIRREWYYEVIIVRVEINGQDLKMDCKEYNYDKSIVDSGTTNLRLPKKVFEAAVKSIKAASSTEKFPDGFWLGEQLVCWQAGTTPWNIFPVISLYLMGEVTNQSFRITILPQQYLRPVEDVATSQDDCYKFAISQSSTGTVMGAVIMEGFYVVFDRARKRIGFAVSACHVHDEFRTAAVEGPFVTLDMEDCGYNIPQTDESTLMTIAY
row,Structure (SMILES),inhibition at 2 µM
1,C[C@@H](NC(=O)c1cc(=O)cc(C(=O)N[C@@H](Cc2ccccc2)[C@H](O)C(=O)Nc2cccc(-c3nn[nH]n3)c2)o1)c1ccccc1 [Example 1],70.1%
2,O=C(N[C@@H](Cc1ccccc1)[C@H](O)C(=O)Nc1cccc(-c2nn[nH]n2)c1)c1cc(=O)cc(C(=O)N(Cc2ccccc2)Cc2ccccc2)o1 [Example 2],28.8%
3,C[C@@H](NC(=O)c1cc(=O)cc(C(=O)N[C@@H](Cc2ccccc2)[C@H](O)C(=O)Nc2cccc(-c3nn[nH]n3)c2)o1)c1ccc([N+](=O)[O-])cc1 [Example 3],26.8%
4,COc1ccc([C@@H](C)NC(=O)c2cc(=O)cc(C(=O)N[C@@H](Cc3ccccc3)[C@H](O)C(=O)Nc3cccc(-c4nn[nH]n4)c3)o2)cc1 [Example 5],70.4%
5,CN(Cc1ccccc1)C(=O)c1cc(=O)cc(C(=O)N[C@@H](Cc2ccccc2)[C@H](O)C(=O)Nc2cccc(-c3nn[nH]n3)c2)o1 [Example 6],66.9%
6,C[C@@H](NC(=O)c1cc(=O)cc(C(=O)NC(Cc2ccccc2)[C@H](O)C(=O)Nc2cccc(-c3nn[nH]n3)c2)[nH]1)c1ccccc1 (stereo partly shown) [Example 7],50.8%
7,C[C@@H](NC(=O)c1cccc(C(=O)NC(Cc2ccccc2)[C@H](O)C(=O)Nc2cccc(-c3nn[nH]n3)c2)n1)c1ccccc1 (stereo partly shown) [Example 9],65.6%
8,O=C(NC(Cc1ccccc1)[C@H](O)C(=O)Nc1cccc(-c2nn[nH]n2)c1)c1cc(=O)cc(C(=O)N2COCC2c2ccccc2)o1 (stereo partly shown) [Example 13],95.6%
9,O=C(NC(Cc1ccccc1)[C@H](O)C(=O)Nc1cccc(-c2nn[nH]n2)c1)c1cc(=O)cc(C(=O)N2COCC2c2ccccc2)[nH]1 (stereo partly shown) [Example 14],82.7%
10,C[C@@H](NC(=O)c1cc(=O)cc(C(=O)N[C@@H](Cc2ccccc2)[C@H](O)C(=O)Nc2cccc(-c3nn[nH]n3)c2)o1)c1ccc(F)cc1 [Example 22],75.8%

# Second part, the compound after the results:
row,inhibition at 2 µM,Structure (SMILES)
1,65.1%,CC(C)(NC(=O)c1cc(=O)cc(C(=O)NC(Cc2ccccc2)[C@H](O)C(=O)Nc2cccc(-c3nn[nH]n3)c2)[nH]1)c1ccccc1 (stereo partly shown) [Example 8]
2,69.1%,CC(C)(NC(=O)c1cccc(C(=O)NC(Cc2ccccc2)[C@H](O)C(=O)Nc2cccc(-c3nn[nH]n3)c2)n1)c1ccccc1 (stereo partly shown) [Example 10]
3,92.6%,O=C(NC(Cc1ccccc1)[C@H](O)C(=O)Nc1cccc(-c2nn[nH]n2)c1)c1cccc(C(=O)N2COCC2c2ccccc2)n1 (stereo partly shown) [Example 15]
4,95.6%,CS(=O)(=O)Oc1cc(C(=O)NC(Cc2ccccc2)[C@H](O)C(=O)Nc2cccc(-c3nn[nH]n3)c2)nc(C(=O)N2COCC2c2ccccc2)c1 (stereo partly shown) [Example 16]
5,37.4%,CC(C)(NC(=O)c1cccc(C(=O)NC(Cc2ccccc2)[C@H](O)C(=O)NS(=O)(=O)C(F)(F)F)n1)c1ccccc1 (stereo partly shown) [Example 17]
6,80.8%,CC(C)(NC(=O)c1cc(=O)cc(C(=O)N[C@@H](Cc2ccccc2)[C@H](O)C(=O)Nc2cccc(-c3nn[nH]n3)c2)o1)c1ccccc1 [Example 21]
